In US20250177555A1 (priority 2022, published 2025):

Test system: 293T cells
Assay type: cell-based

C=C(C)[C@@H]1CCC(C)=C[C@H]1c1c(O)cc(CCCCC)cc1O [CBD, cannabidiol]
production of gectosomes encapsulated Nluc cargo: induces an elevated production
